Measured values reported in patent US7034040B2, “Fluorinated heterocyclic compounds and methods of synthesis” (R.T. Alamo Ventures I, priority 2002, dated 2006).
Each block holds one compound with its values, some of them ahead of it.

Experiments:
[1] = test system: Protein Serine/Threonine Kinase PKC, Non-Selective; experiment: Protein serine/threonine kinase PKC, non-selective, enzyme assay; format: biochemical; conditions: rat brain enzyme
From the text: In this example, monofluoroflosequinan was subjected to biochemical enzyme assays and radioligand binding assays to determine its percent inhibition of a variety of enzyme activities and its percent inhibition of specific binding. The methods used have been adapted from those described in the scientific literature, see Hidaka and Asano “Human blood platelet 3′:5′ cyclic nucleotide phosphodiesterase. Isolation of low-Km and high Km phosphodiesterase.” Biochem. Biophys. Acta 429:485 (1976); Nicholoson et al. “Differential modulation of tissue function and therapeutic potential of selective inhibitors of cyclic nucleotide phosphodiesterase isoenzymes” Trends Pharmacol. Sci. 12:19 (1991); Cortijo et al. “Investigation into the role of phosphodiesterase IV in bronchorelaxation, including studies with hyman bronchus.” Br. J Pharmacol. 108:562 (1993); Baehr et al. “Isolation and characterization of cGMP phosphodiesterase from bovine rod outer segments.” J. Biol. Chem. 254:11669 (1979), Gillespie and Beavo “Inhibition and stimulation of photoreceptor phosphodiesterase by dipyridamole and M&B 22,948” Molecular Pharm. 36:773 (1989); Tamaoki and Nakano “Potent and specific inhibitors of protein kinase C of microbial origin” Biotechnology 8:732 (1990); Wilkinson et al. “Isoenzyme specificity of bisindolymaleimides, selective inhibitors of protein kinase C” Biochem. J 294:335 (1993); Tamaki et al. “Staurosporine, a potent inhibitor of phospholipid/Ca++dependent protein kinase” Biochem. Biophys. Res. Comm, 135:397 (1986); Schoemaker and Langer “[3H]Diltiazem binding to calcium channel antagonist recognition sites in rate cerebral cortex” Eur. J Pharmacol. 111:273 (1985); Ehlert et al. “The binding of [3H]nitrendipine to receptors for calcium channel antagonists in the heart, cerebral cortex and ileum of rats.” Life Sci. 30:2191 (1982); Gould et al. “[3H]nitrendipine-labeled calcium channels discriminate inorganic calcium agonists and antagonists” Proc. Natl. Acad. Sci. USA 79:3656 (1982); Reynolds et al. “(−)−[3H]Desmethoxyverapamil labels multiple calcium channel modulator receptors in brain and skeletal muscle membranes: Differentiation by temperature and dihydropyridines” J Pharmacol. Exp. Ther. 237:731 (1986) and Worley et al. “Characterization of inositol triphosphate receptor binding in brain. Regulation by pH and calcium” J Biol. Chem. 262:12132 (1987). A brief summary of the conditions for each assay is provided below:
Protein Serine/Threonine Kinase PKC, Non-Selective: The enzyme was obtained from rat brain and the substrate was 370 μg/ml histone. The reaction was pre-incubated 5 min at 25° C., followed by a 15 min incubation at 25° C. in a buffer of 20 mM Tris-HCl, 10 mM MgCl2.Ho and 0.1 mM CaCl2.2HO, pH 7.4. [^32P]histone was quantitated.

[2] = target: T1, PDE3 (Homo sapiens, UniProt Q14432); experiment: PDE3 enzyme inhibition assay; format: biochemical; conditions: 1000 μM compound, 1% DMSO vehicle, human platelet enzyme
T1 construct: PDE3 partially purified from human platelets was used; from tissue; host or cells: human platelets
From the text: (§1) In this example, monofluoroflosequinan was subjected to biochemical enzyme assays and radioligand binding assays to determine its percent inhibition of a variety of enzyme activities and its percent inhibition of specific binding. The methods used have been adapted from those described in the scientific literature, see Hidaka and Asano “Human blood platelet 3′:5′ cyclic nucleotide phosphodiesterase. Isolation of low-Km and high Km phosphodiesterase.” Biochem. Biophys. Acta 429:485 (1976); Nicholoson et al. “Differential modulation of tissue function and therapeutic potential of selective inhibitors of cyclic nucleotide phosphodiesterase isoenzymes” Trends Pharmacol. Sci. 12:19 (1991); Cortijo et al. “Investigation into the role of phosphodiesterase IV in bronchorelaxation, including studies with hyman bronchus.” Br. J Pharmacol. 108:562 (1993); Baehr et al. “Isolation and characterization of cGMP phosphodiesterase from bovine rod outer segments.” J. Biol. Chem. 254:11669 (1979), Gillespie and Beavo “Inhibition and stimulation of photoreceptor phosphodiesterase by dipyridamole and M&B 22,948” Molecular Pharm. […]
PDE3: PDE3 partially purified from human platelets was used. […] Unhydrolyzed cAMP was bound to AGI-X2 resin, and the remaining [^3H]adenosine in the aqueous phase was quantitated by scintillation counting.

[3] = test system: PDE1; experiment: PDE1 enzyme inhibition assay; format: biochemical; conditions: 1000 μM compound, 1% DMSO vehicle, bovine heart enzyme
From the text: as §1
PDE1: PDE1 partially purified from bovine heart was used. […] Unhydrolyzed cAMP was bound to AGI-X2 resin, and the remaining [^3H]adenosine in the aqueous phase was quantitated by scintillation counting.

[4] = test system: PDE4; experiment: PDE4 enzyme inhibition assay; format: biochemical; conditions: 1000 μM compound, 1% DMSO vehicle, human U-937 cell enzyme
From the text: as §1
PDE4: PDE4 partially purified from human U-937 pronocytic cells was used. […] Unhydrolyzed cAMP was bound to AGI-X2 resin, and the remaining [^3H]adenosine in the aqueous phase was quantitated by scintillation counting.

[5] = target: Calcium Channel Type L, Dihydropyridine; conditions: Wistar rat cerebral cortex, 90 min at 25° C.; read-out: Kd (historical value of the radioligand); cited from earlier work

T1 sequence (Q14432 whole entry): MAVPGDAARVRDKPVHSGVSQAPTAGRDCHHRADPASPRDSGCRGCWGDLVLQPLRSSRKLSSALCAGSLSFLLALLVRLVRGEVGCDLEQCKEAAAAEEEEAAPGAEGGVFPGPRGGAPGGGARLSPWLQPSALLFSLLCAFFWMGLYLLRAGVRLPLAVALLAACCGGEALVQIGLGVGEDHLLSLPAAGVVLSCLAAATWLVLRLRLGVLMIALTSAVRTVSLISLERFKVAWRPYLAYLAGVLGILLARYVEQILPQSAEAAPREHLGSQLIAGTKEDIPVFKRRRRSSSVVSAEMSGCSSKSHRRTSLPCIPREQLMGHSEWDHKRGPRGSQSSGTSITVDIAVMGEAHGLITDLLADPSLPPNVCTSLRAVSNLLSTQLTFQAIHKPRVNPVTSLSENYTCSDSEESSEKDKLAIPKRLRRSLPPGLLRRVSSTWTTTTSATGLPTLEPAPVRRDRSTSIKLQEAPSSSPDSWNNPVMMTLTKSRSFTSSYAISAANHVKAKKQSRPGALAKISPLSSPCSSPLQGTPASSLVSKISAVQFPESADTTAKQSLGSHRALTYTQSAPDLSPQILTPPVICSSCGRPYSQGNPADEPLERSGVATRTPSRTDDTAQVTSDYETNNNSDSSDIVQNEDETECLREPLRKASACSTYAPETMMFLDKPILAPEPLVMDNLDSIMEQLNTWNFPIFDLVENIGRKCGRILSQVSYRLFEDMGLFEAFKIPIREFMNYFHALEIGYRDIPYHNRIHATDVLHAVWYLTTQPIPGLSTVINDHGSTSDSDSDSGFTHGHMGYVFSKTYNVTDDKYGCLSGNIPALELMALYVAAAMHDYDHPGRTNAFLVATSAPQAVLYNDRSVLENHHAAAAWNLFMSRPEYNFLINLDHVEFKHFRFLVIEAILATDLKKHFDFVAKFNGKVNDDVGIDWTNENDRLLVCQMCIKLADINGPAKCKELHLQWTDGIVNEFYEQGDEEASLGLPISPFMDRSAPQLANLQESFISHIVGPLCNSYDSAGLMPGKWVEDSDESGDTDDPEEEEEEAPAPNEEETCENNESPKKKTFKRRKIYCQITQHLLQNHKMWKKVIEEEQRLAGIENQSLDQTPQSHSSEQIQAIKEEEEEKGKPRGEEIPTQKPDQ

- inhibition of protein serine/threonine kinase, PKC, non-selective ([1]; 100 μM compound): Significant inhibition
- inhibition of protein serine/threonine kinase, PKC, non-selective ([1]; 300 μM compound): Significant inhibition
- inhibition of protein serine/threonine kinase, PKC, non-selective ([1]; 1000 μM compound, 1% DMSO vehicle): Significant inhibition
Compound: Cn1cc([S+]([O-])CF)c(=O)c2ccc(F)cc21 (racemic) [monofluoroflosequinan, 7-fluoro-3-fluoromethylsulfinyl-1-methyl-4-quinolone]

- inhibition at 1000 µM [2]: > 50%
- inhibition of PDE1 [3]: greater than 50%
- inhibition of PDE4 [4]: greater than 50%
Compound: Cn1cc(S(=O)(=O)C(F)F)c(=O)c2ccc(F)cc21 [3-difluoromethylsulfonyl-7-fluoro-1-methyl-4-quinolone]

Compound: CCOC(=O)C1=C(C)NC(C)=C(C(=O)OC)C1c1cccc([N+](=O)[O-])c1 (stereo not shown) [^3H Nitrendipine]
- Kd [5]: 0.18 nM

- inhibition at 1000 µM [2]: > 50%
- inhibition of PDE1 [3]: greater than 50%
- inhibition of protein serine/threonine kinase, PKC, non-selective ([1]; 1000 μM compound): greater than 50%
Compound: Cn1cc([S+]([O-])C(F)F)c(=O)c2ccc(F)cc21 (stereo not shown) [difluoroflosequinan, 3-difluoromethylsulfinyl-7-fluoro-1-methyl-4-quinolone]
